Test results: BigSolDB 2.1

c1cc2c3c(cccc3c1)CC2
solubility (mole fraction)
Conditions	in acetone	in benzene	in isobutanol	in m-xylene	in n-propanol
283 K	0.0417	0.118	0.00926	0.109	0.00879
288 K	0.0491	0.131	–	0.129	–
288.1 K	–	–	0.0128	–	0.012
293 K	0.0587	–	–	0.143	–
293.2 K	–	0.142	0.0162	–	0.0144
298 K	0.0692	0.162	0.0205	0.163	0.0175
303 K	0.0788	0.187	–	–	–
303.1 K	–	–	–	0.188	–
303.3 K	–	–	0.0253	–	0.0208
308 K	–	–	0.0297	–	0.0246
308.1 K	0.0954	–	–	–	–
308.2 K	–	–	–	0.216	–
308.3 K	–	0.215	–	–	–
313 K	0.113	0.244	–	0.245	–
313.1 K	–	–	0.0353	–	0.0295
318 K	0.136	0.277	0.0435	0.281	0.0364
323 K	0.173	0.312	0.0565	0.321	0.0464
